From patent US6057371A, “Sigma receptor ligands and the use thereof” (Virginia Commonwealth University, priority 1992, dated 2000)
Like-named read-outs stand apart in the source and are kept apart here.

Assays:
sigma receptor = assay: Sigma receptor binding, [^3 H]DTG, brain membranes (both sigma-1 and sigma-2 sites); design: species or system guinea pig
Procedure: Sigma receptor binding assays using guinea pig brain membrane homogenates and the radioligand [^3 H]DTG were conducted as described by Weber et al.. […] Briefly, frozen whole guinea-pig brains (Biotrol, Indianapolis, Ind.) were homogenized in 10 volumes (w/v) of ice-cold 320 mM sucrose using a Brinkman polytron. The homogenate was centrifuged at 1,000× g for 20 minutes at 4° C. The supernatant was centrifuged at 20,000× g for 20 minutes at 4° C. The resulting pellet was resuspended in 10 initial volumes of 50 mM Tris/HCl buffer at pH 7.4 and centrifuged at 20,000× g for 20 minutes at 4° C. The resulting pellet was resuspended in 5 initial volumes ice-cold 50 mM Tris/Hcl […], and the final volume was adjusted to yield a protein concentration of 3 mg/ml. Aliquots of 20-ml were stored at -70° C. until used, with no detectable loss of binding.
The protein concentration in the 1-ml final incubation volume was 800 ug/ml, corresponding to 32 mg of brain tissue (original wet weight) and to a tissue concentration within the linear range for specific binding. […] Incubations were terminated after 90 minutes at room temperature by addition of 4 ml of ice-cold 50 mM Tris/HCl (pH 7.4) and rapid filtration of the membrane suspension through Whatman GF/B glass-fiber filters under vacuum, using a 48-well cell harvester (Brandel). The filters were washed 2 times with 4 ml of 50 mM Tris/HCl (pH 7.4). Each filter was suspended in 10 ml Cytoscint (ICI), and radioactivity was measured by liquid scintillation spectrometry at a counting efficiency of approximately 50%. IC50 values were determined by non-linear regression analyis.
(§1) Further sigma receptor binding assays against [^3 H]DTG and 5HT-1A binding assays were conducted according to the procedure outlined in the previous examples.
Radioligand Binding. […] Briefly, membranes (P2 microsomal fraction) were diluted 1:3 with 50 mM Tris HCl (pH 7.4) and 0.4 mL was combined with 50 μL [^3 H]DTG (1-2 nM final concentration) and 50 μL of competing drug or buffer. After 90 min at room temperature, incubation was terminated by rapid filtration under vacuum through Whatman GF/B glass fiber filters using a Brandel 48-well cell harvester. Filters were washed three times with 5 mL of cold Tris HCl buffer and each filter was suspended in 5 mL of Cytoscint (ICN Biomedical). Radioactivity was measured by liquid scintillation spectrometry at a counting efficiency of 50%.

sigma-2 binding site = biological target: T1, sigma-2 binding site (Cavia porcellus, UniProt H0V073); assay: biochemical; design: species or system guinea pig
T1 construct: Guinea pig whole membrane preparations (P2 microsomal fraction); from tissue; host or cells: guinea pig membranes (P2 microsomal fraction), as described by Weber et al; brain inferred from the sister test b489
T1 sequence (H0V073 1-176): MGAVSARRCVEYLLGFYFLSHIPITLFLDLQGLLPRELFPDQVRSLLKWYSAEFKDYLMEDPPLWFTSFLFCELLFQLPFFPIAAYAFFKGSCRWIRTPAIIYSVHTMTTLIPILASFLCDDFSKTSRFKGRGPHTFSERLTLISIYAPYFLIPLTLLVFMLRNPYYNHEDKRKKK
Procedure: For the standard equilibrium assay, the mixtures were incubated for 30 min. at room temperature, then filtered and the radioactivity determined as described above.

5-HT1A receptor = biological target: T2, 5-HT1A receptor (Rattus norvegicus, UniProt P19327); assay: biochemical; type: binding; design: 47: 529-540 (1986); from tissue; host or cells: brain tissue, inferred from the cited method (rat frontal cortex); conditions: Table 6; read-out: 5HT-1A (nM) MEAN
T2 sequence (P19327 1-422): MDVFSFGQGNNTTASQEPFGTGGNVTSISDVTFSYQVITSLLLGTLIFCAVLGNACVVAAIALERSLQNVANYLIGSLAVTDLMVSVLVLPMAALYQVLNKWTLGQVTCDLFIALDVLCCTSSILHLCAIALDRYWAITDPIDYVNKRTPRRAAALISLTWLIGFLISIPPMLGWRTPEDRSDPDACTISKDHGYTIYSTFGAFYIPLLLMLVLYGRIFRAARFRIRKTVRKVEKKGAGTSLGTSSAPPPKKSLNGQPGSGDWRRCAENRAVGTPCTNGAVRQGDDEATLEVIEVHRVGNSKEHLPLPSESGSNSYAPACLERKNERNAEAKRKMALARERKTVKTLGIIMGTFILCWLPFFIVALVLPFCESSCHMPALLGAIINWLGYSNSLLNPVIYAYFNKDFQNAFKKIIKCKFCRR
Procedure: as §1

sigma-1 binding site = biological target: T3, sigma-1 binding site (Cavia porcellus, UniProt Q60492); assay: biochemical; design: species or system guinea pig
T3 construct: Guinea pig whole membrane preparations (P2 microsomal fraction); from tissue; host or cells: guinea pig membranes (P2 microsomal fraction), as described by Weber et al; brain inferred from the sister test b489
T3 sequence (Q60492 whole entry): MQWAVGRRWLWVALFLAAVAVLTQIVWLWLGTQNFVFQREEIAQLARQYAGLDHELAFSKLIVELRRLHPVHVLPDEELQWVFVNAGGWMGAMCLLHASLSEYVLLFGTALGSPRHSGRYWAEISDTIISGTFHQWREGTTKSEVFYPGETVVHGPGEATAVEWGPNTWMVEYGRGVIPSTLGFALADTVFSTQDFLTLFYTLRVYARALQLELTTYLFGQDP
Procedure: [^3 H]DTG was purchased from DuPont/NEN.
The radioactivity on the filters was determined by scintillation spectrometry at an efficiency of about 50% using Cytoscint (ICN) scintillation fluid.

[1] = Table 10, read-out: SIGMA-2 KI vs. 3H-DTG + PENTAZOCINE MEAN
[2] = Table 10, read-out: SIGMA-1 KI vs. 3H-PENTAZOCINE MEAN
[3] = less than about 0.1, see Table 10
[4] = Example 9, read-out: sigma-2 IC50
[5] = Table 7, Phenyl-(CH2)x -NH--(CH2)y -Phenyl, read-out: Ki
[6] = Table 18, read-out: IC50 (nM) at sigma-2
[7] = running text, Examples 5 and 6, read-out: sigma receptor Ki
[8] = Table 16, read-out: Sigma-1 IC50

SMILES | IC50 (sigma receptor; Table 6, [^3 H]DTG) | Ki (sigma-2 binding site; [1]) | IC50 (5-HT1A receptor) | Ki (sigma-1 binding site; [2]) | S1/S2 Ratio (sigma-1 binding site; Table 10, sigma-1/sigma-2) | IC50 ratio of sigma-1/sigma-2 (sigma-1 selective compounds) (sigma-1 binding site; [3]) | also measured
c1ccc2cc(CCCNCCCc3ccc4ccccc4c3)ccc2c1 [Compound 70, Di-[3-(2'-Naphthyl)propyl)amine] | 116 nM | 10000 nM | 3890 nM |  |  |  | 
CN1CCN(CC/C=C\c2cccc(C(F)(F)F)c2)CC1 [Compound 105, N-(4-(3-trifluoromethyl)-3-(Z)-butenyl)-N-methylpiperazine] | 9.5 nM | 177 nM | 4960 nM | 1.5 nM | 0.008 | less than 0.1 | 
CCCN(C)CCCCCc1ccccc1 [Compound 112, N-methyl-N-propyl-5-phenylpentylamine] | 2.65 nM | 40.5 nM | 8240 nM |  |  |  | Ki (sigma receptor; running text, Examples 5 and 6, listed as N-methyl-N-propyl-5-phenylpentylamine, read-out: sigma receptor Ki): 2.2 nM; IC50 (sigma-1 binding site; Example 8, read-out: sigma-1 IC50, text): 0.29 nM; Ki (sigma-1 binding site; read-out: SIGMA-1 KI vs. 3H-P[…]): 0.29 nM; IC50 (sigma-2 binding site; [4]): 40 nM
CCOc1ccc(CC(C)NCCCc2ccccc2)cc1 (racemic) [Compound 83, N-(3-phenylpropyl)-1-(p-ethoxyphenyl)-2-propylamine] | 7.08 nM | 33.5 nM | 77.7 nM | 3.38 nM | 0.101 | less than 0.1 | IC50 (sigma-1 binding site; Table 12, read-out: IC50 (nM) at sigma-1): 3.4 nM; IC50 (sigma-2 binding site; Table 17, read-out: IC50 (nM) at sigma-2): 34 nM
c1ccc(CCCCCCCNCc2ccccc2)cc1 [Compound 90, N-(7-phenylheptyl)benzylamine] | 3.95 nM | 38.5 nM | 3210 nM |  |  |  | Ki (sigma receptor; [5]): 3.6 nM; IC50 ratio of sigma-1/sigma-2 (sigma-1 selective compounds) (sigma-1 binding site): less than 0.1; sigma-2/sigma-1 selectivity (sigma-1 binding site): 126; Ki (sigma-1 binding site; SIGMA-1 KI vs. 3H-P[…]): 2.3 nM; S1/S2 Ratio (sigma-1 binding site; guinea pig, microsomes): 0.060
CCCN1CCN(c2ccccc2)CC1 [Compound 64, N-Phenyl-N'-propylpiperazine] |  | 538 nM | 784 nM | 81.6 nM |  |  | 
c1ccc(CCCCCNCc2ccccc2)cc1 [Compound 77, N-(5-phenylpentyl)benzylamine] | 2.07 nM | 34.3 nM | 759 nM | 0.32 nM | 0.009 | less than 0.1 | Ki (sigma receptor; [5]): 2 nM; IC50 (sigma-1 binding site; Table 15, read-out: IC50 (nM) at sigma-1): 0.32 nM; IC50 (sigma-2 binding site; [6]): 34 nM
c1ccc(CCCCCN2CCCCC2)cc1 [Compound 124, N-(5-phenylpentyl)piperidine] | 2.05 nM | 49.9 nM |  | 0.48 nM | 0.010 | less than 0.1 | sigma-2/sigma-1 selectivity (sigma-1 binding site; Example 8): 100
c1ccc(CCCCCN2CCN(Cc3ccccc3)CC2)cc1 [Compound 129, N-Benzyl-N'-(5-phenylpentyl)-piperazine] | 2.29 nM | 11.3 nM |  | 0.41 nM | .036 |  | 
CN(C)CCCCCC1CCCCC1 [Compound 128, N,N-Dimethyl-5-cyclohexylpentylamine] | 2.87 nM | 195 nM |  | 0.26 nM | 0.001 | less than 0.1 | change in sigma receptor affinity vs. analog (sigma receptor; Examples 5 and 6, [^3 H]DTG): ~10 fold; Ki (sigma receptor; [7]): 2.6 nM; sigma-2/sigma-1 selectivity (sigma-1 binding site; Example 8): 650; IC50 (sigma-1 binding site; [8]): 0.26 nM
c1ccc(CCCCCCCNCCc2ccccc2)cc1 [Compound 91, N-(7-phenylheptyl)phenethylamine] | 4.07 nM | 33.2 nM | 732 nM | 1.47 nM |  |  | Ki (sigma receptor; [5]): 4.1 nM; IC50 ratio of sigma-1/sigma-2 (sigma-1 selective compounds) (sigma-1 binding site): less than 0.1; S1/S2 Ratio (sigma-1 binding site; guinea pig, microsomes): 0.044; Ki (sigma-1 binding site; sigma-1 binding affinity): 1.5 nM
c1ccc(CNCCCCCC2CCCCC2)cc1 [Compound 94, N-(5-cyclohexylpentyl)benzylamine] | 4.02 nM | 43.6 nM | 5550 nM |  |  |  | Ki (sigma receptor; Examples 5 and 6, listed as N-benzyl-(5-cyclohexyl)pentylamine, read-out: sigma receptor Ki): 1.3 nM; Ki (sigma receptor; [7]): 3.4 nM; IC50 (sigma-1 binding site): 0.81 nM; IC50 ratio of sigma-1/sigma-2 (sigma-1 selective compounds) (sigma-1 binding site): less than 0.1; Ki (sigma-1 binding site; SIGMA-1 KI vs. 3H-P[…]): 0.81 nM; S1/S2 Ratio (sigma-1 binding site; guinea pig, microsomes): 0.019
CCC(Cc1ccccc1)NCCCCc1ccccc1 (centres unmarked) [Compound 101, N-(4-phenylbutyl)-1-phenyl-2-butylamine] | 15.7 nM | 104 nM |  | 2.7 nM | 0.026 | less than 0.1 | 
CN(CCCc1ccc2ccccc2c1)CCCc1ccc2ccccc2c1 [Compound 74] | 81.9 nM | 461 nM |  | 30 nM | 0.065 | less than 0.1 | 
CN1CCN(CC/C=C/c2ccccc2)CC1 [Compound 103, N-(4-phenyl-3(E)-butenyl)-N'-methylpiperazine] | 75.2 nM | 2540 nM |  |  |  |  | IC50 ratio of sigma-1/sigma-2 (sigma-1 selective compounds) (sigma-1 binding site): less than 0.1; Ki (sigma-1 binding site; SIGMA-1 KI vs. 3H-P[…]): 28.7 nM; S1/S2 Ratio (sigma-1 binding site; guinea pig, microsomes): 0.011
C[C@@H](Cc1ccccc1)N(CCCc1ccccc1)Cc1ccccc1 [Compound 134, N-Benzyl-N-(3-phenylpropyl)-1-phenyl-2-propylamine] |  |  |  |  |  |  | IC50 (sigma receptor): 199 nM; Ki (sigma-1 binding site; SIGMA-1 KI vs. 3H-P[…]): 128 nM; S1/S2 Ratio (sigma-1 binding site; guinea pig, microsomes): 0.272; Ki (sigma-2 binding site; SIGMA-2 KI vs. 3H-DTG + P[…]): 471 nM
CNCCCCCC1CCCCC1 [Compound 127, N-methyl-5-cyclohexylpentylamine] | 10.6 nM | 346 nM |  | 6.78 nM | 0.020 | less than 0.1 | Ki (sigma receptor; [7]): 10 nM; sigma-2/sigma-1 selectivity (sigma-1 binding site; Example 8): 51; IC50 (sigma-1 binding site; [8]): 6.8 nM
c1ccc(CCCCCNCCc2ccccc2)cc1 [Compound 89, N-(5-phenylpentyl)phenethylamine] | 2.74 nM | 14.6 nM | 106 nM |  |  |  | Ki (sigma receptor; [5]): 2.4 nM; Ki (sigma receptor; [7]): 2.4 nM; IC50 (sigma-2 binding site; [6]): 15 nM
c1ccc(CCCN2CCCCC2)cc1 [Compound 140, N-(3-phenylpropyl)piperidine] | 69 nM | 147 nM |  | 48.9 nM |  |  | 
c1ccc(CCCNCCc2ccccc2)cc1 [Compound 87, N-(3-phenylpropyl)phenethylamine] | 21.8 nM | 90.1 nM |  | 11.3 nM |  |  | Ki (sigma receptor; [5]): 19 nM; Ki (sigma receptor; [7]): 19 nM; IC50 (sigma-1 binding site; Table 14, read-out: IC50 (nM) at sigma-1): 11.3 nM; IC50 (sigma-2 binding site; [4]): 90 nM
CN1CCN(CCCCc2ccccc2)CC1 [Compound 106, N-(4-phenyl)-N'-methylpiperazine] | 49.8 nM | 899 nM |  | 19.3 nM | 0.022 | less than 0.1 | 
